Twelve molecules from patent publication US8853258B2, “C-linked hydroxamic acid derivatives useful as antibacterial agents” (Pfizer Inc., priority 2009, dated 2014) can be followed below.

Series [1] has as its system Klebsiella pneumoniae: Ciprofloxacin-resistant isolate, ESBL, clinical isolate (KP-3700). As to the kind of experiment: MIC determination (CLSI), KP-3700. In kind it is cell-based. In short, it runs like this: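 Strain KP-3700, a clinical isolate producing extended-spectrum β-lactamases and resistant to ciprofloxacin, was tested. Minimum inhibitory concentrations determined via CLSI dilution methodology (M7-A7; M100-S18).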

Series [2] has as its system Escherichia coli EC-1: VOGEL, mouse virulent. Nature of the series: MIC determination (CLSI), EC-1. In kind it is cell-based. The following applies: Escherichia coli EC-1 VOGEL, mouse virulent. The method, boiled down:
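E. coli Vogel, a mouse-virulent strain (EC-1), was tested. MICs were set by dilution susceptibility testing per CLSI standards M7-A7/M100-S18.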

Series [3] concerns Acinetobacter baumanii/haemolyticus: Multidrug-resistant clinical isolate (AB-3167). Nature of the series: MIC determination (CLSI), AB-3167. The series is classed as cell-based. The settings on record: Acinetobacter baumanii/haemolyticus multidrug-resistant clinical isolate AB-3167. The method, boiled down: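 Multidrug-resistant clinical isolate AB-3167 (A. baumannii/haemolyticus) tested for minimum inhibitory concentration following CLSI dilution susceptibility standards M7-A7 and M100-S18.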

In series [4] the test system is Pseudomonas aeruginosa UI-18: Wild-type (PA-7). Nature of the series: MIC determination (CLSI), PA-7. The series is classed as cell-based. The following applies: Pseudomonas aeruginosa UI-18 wild-type PA-7. The method, boiled down: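 Wild-type P. aeruginosa UI-18 tested for minimum inhibitory concentration. Broth/agar dilution following CLSI standards (M7-A7, M100-S18).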

Series [5] addresses Pseudomonas aeruginosa LpxC enzyme (Pseudomonas aeruginosa (strain ATCC 15692 / DSM 22644 / CIP 104116 / JCM 14847 / LMG 12228 / 1C / PRS 101 / PAO1), UniProt P47205). Nature of the series: IC50 Assay, LpxC Enzyme from P. aeruginosa (PA LpxC Enzyme IC50). The series is classed as biochemical. The following applies: P. aeruginosa LpxC enzyme; read-out: PA LpxC enzyeme IC50. In short, it runs like this: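 Product formation quantified by RapidFire HTMS after a 1 h enzyme reaction quenched with 1N HCl.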

Usually IC50 stands for the concentration at which inhibition is half-maximal.

As for `CC(CCc1ccc(-c2ccc(N3CCNCC3)cc2)cc1)(C(=O)NO)S(C)(=O)=O` (stereo not drawn) [Example 185], the “KP-3700 MIC” value in series [1] is listed as “≧64 mg/L”. Moreover, in series [2], the “EC-1 MIC” value was 16 µg/mL. The “AB-3167 MIC” value in series [3] was “≧64 mg/L”. Besides, the “PA-7 MIC” value in series [4] stood at 8 µg/mL. Further, the IC50 in series [5] turned out to be 6.22 nM.
On to `C[C@@](CCc1ccc(-c2ccc(C(=O)CO)cc2)cc1)(C(=O)NO)S(C)(=O)=O` [Example 186], for which the “KP-3700 MIC” value in series [1] amounted to 4 µg/mL. Further, the “EC-1 MIC” value in series [2] is 2 µg/mL. Further, the “AB-3167 MIC” value in series [3] is listed as “≧64 mg/L”. In addition, in series [4], the “PA-7 MIC” value was determined as 1 µg/mL. Also, the IC50 in series [5] was 0.238 nM.
For `CC(=O)c1ccc(-c2ccc(CCC(C)(C(=O)NO)S(C)(=O)=O)c(F)c2)nc1` (stereo not drawn) [Example 187], in that order: 16 µg/mL, 16 µg/mL, “≧64 mg/L”, 4 µg/mL and 0.632 nM.
For `CC(=O)c1ccc(-c2ccc(CCC(C)(C(=O)NO)S(C)(=O)=O)c(F)c2)cn1` (stereo not drawn) [Example 188], in that order: 8 µg/mL, 8 µg/mL, “≧64 mg/L”, 2 µg/mL and 0.348 nM.
In the same order, the values of `CC(=O)c1ccc(-c2ccc(CC[C@](C)(C(=O)NO)S(C)(=O)=O)cc2)nc1` [Example 189] are 16 µg/mL, 16 µg/mL, “≧64 mg/L”, 4 µg/mL and 0.711 nM.
With `CC(=O)c1ccc(-c2ccc(CC[C@](C)(C(=O)NO)S(C)(=O)=O)cc2)cn1` [Example 190], in series [1], the “KP-3700 MIC” value was determined as 4 µg/mL. Further, in series [2], the “EC-1 MIC” value worked out at 4 µg/mL. Further, the “AB-3167 MIC” value in series [3] is “≧64 mg/L”. For the same molecule, in series [4], the “PA-7 MIC” value was found to be 2 µg/mL. In addition, the IC50 in series [5] turned out to be 0.246 nM.
Turning to `C[C@@](CCc1ccc(-c2ccc(CC(=O)N3CCC(O)CC3)cc2)cc1)(C(=O)NO)S(C)(=O)=O` [Example 191], the “KP-3700 MIC” value in series [1] is listed as “≧64 mg/L”. Besides, in series [2], the “EC-1 MIC” value was “≧64 mg/L”. In addition, the “AB-3167 MIC” value in series [3] is “≧64 mg/L”. In addition, the “PA-7 MIC” value in series [4] was determined as 16 µg/mL. Further, in series [5], the IC50 was determined as 2.63 nM.
For `C[C@@](CCc1ccc(-c2ccc(C(=O)N3CCC(O)CC3)cc2)cc1)(C(=O)NO)S(C)(=O)=O` [Example 192], in series [1], the “KP-3700 MIC” value is listed as “≧64 mg/L”. Further, the “EC-1 MIC” value in series [2] is “≧64 mg/L”. Moreover, the “AB-3167 MIC” value in series [3] is “≧64 mg/L”. The “PA-7 MIC” value in series [4] was found to be 16 µg/mL. Moreover, the IC50 in series [5] stood at 3.39 nM.
Regarding `CC(CCc1ccc(-c2ccc(N3CCN(S(C)(=O)=O)CC3)cc2)cc1)(C(=O)NO)S(C)(=O)=O` (stereo not drawn) [Example 193], the “KP-3700 MIC” value in series [1] is recorded as “≧64 mg/L”. Further, the “EC-1 MIC” value in series [2] amounted to 16 µg/mL. Also, the “AB-3167 MIC” value in series [3] is recorded as “≧64 mg/L”. Also, the “PA-7 MIC” value in series [4] is “≧64 mg/L”. Also, in series [5], the IC50 was 1.08 nM.
`CC(O)C(=O)c1ccc(-c2ccc(CCC(C)(C(=O)NO)S(C)(=O)=O)cc2)cc1` (stereo not drawn) [Example 194]: the “KP-3700 MIC” value in series [1] came to 4 µg/mL. Further, the “EC-1 MIC” value in series [2] was determined as 1 µg/mL. The “AB-3167 MIC” value in series [3] is recorded as “≧64 mg/L”. In addition, the “PA-7 MIC” value in series [4] was 1 µg/mL. The IC50 in series [5] was 0.195 nM.
Turning to `CC(CCc1ccc(-c2ccc3ncccc3c2)c(F)c1)(C(=O)NO)S(C)(=O)=O` (stereo not drawn) [Example 195], the “KP-3700 MIC” value in series [1] is 4 µg/mL. For the same molecule, in series [2], the “EC-1 MIC” value turned out to be 1 µg/mL. In series [3], the “AB-3167 MIC” value amounted to 32 µg/mL. Moreover, the “PA-7 MIC” value in series [4] was found to be 2 µg/mL. In series [5], the IC50 amounted to 0.733 nM.
With `CC(CCc1ccc(-c2ccc3c(c2)C(=O)NC3)cc1F)(C(=O)NO)S(C)(=O)=O` (stereo not drawn) [Example 196], in series [1], the “KP-3700 MIC” value came out at 16 µg/mL. In addition, the “EC-1 MIC” value in series [2] was 4 µg/mL. In addition, the “AB-3167 MIC” value in series [3] is “≧64 mg/L”. Besides, the “PA-7 MIC” value in series [4] came out at 4 µg/mL. Moreover, in series [5], the half-inhibitory concentration (IC50) came out at 0.631 nM.
